From paper PMC7294232, “Synthesis and biological evaluation of novel quinoline-piperidine scaffolds as antiplasmodium agents” (European Journal of Medicinal Chemistry, 2020) come the findings set out here.

The subject of test [1] is Chinese hamster ovarian (CHO) cells. The experiment in a line: in vitro cytotoxicity, MTT-assay. It counts as cell-based. The note with it: for IC50: Cricetulus griseus, CHO; for SI (selectivity index): IC50 CHO/IC50 NF54. Here is the method: An antiplasmodium assay was performed on this set of 18 novel quinoline-piperidine analogues to establish their potential as antimalarial agents. […] All compounds were screened for in vitro antiplasmodium activity against a CQ-sensitive strain of P. falciparum (NF54). Subsequently, compounds showing promising antiplasmodium activity were also tested against a CQ-resistant strain of P. falciparum (K1) and analysed for in vitro cytotoxicity against a mammalian cell line, Chinese hamster ovarian (CHO) cells, using the 3-(4,5-dimethylthiazol-2-yl)-2,5-diphenyltetrazoliumbromide (MTT)-assay. Continuous in vitro cultures of asexual erythrocyte stages of P. falciparum were maintained using a modified method of Trager and Jensen, and quantitative assessment of antiplasmodium activity in vitro was determined via the parasite lactate dehydrogenase assay using a modified method described by Makler. The test samples were tested in triplicate on one occasion. The MTT-assay was used as a colorimetric assay for cellular growth and survival, and compares well with other available assays. The tetrazolium salt MTT was used to measure all growth and chemosensitivity. Again, samples were tested in triplicate on one occasion. Chloroquine was used as reference compound in both antiplasmodium screenings, while emetine was used as known antiprotozoal agent in the MTT-assay.
The same stock solutions prepared for antiplasmodium testing were used for cytotoxicity testing. Test compounds were stored at −20 °C until use. Dilutions were prepared on the day of the experiment. Emetine was used as the reference drug in all experiments. The initial concentration of emetine was 100 μg/ml, which was serially diluted in complete medium with 10-fold dilutions to give 6 concentrations, the lowest being 0.001 μg/ml. The same dilution technique was applied to all the test samples. The highest concentration of solvent to which the cells were exposed to had no measurable effect on the cell viability (data not shown). The 50% inhibitory concentration (IC50) values were obtained from full dose-response curves, using a non-linear dose-response curve fitting analysis via GraphPad Prism v.4 software.
(In general: Tetrazolium dyes change colour on reduction, which living cells bring about.)

Test [2] has as its system CQ-resistant strain of P. falciparum (K1). As to the kind of experiment: in vitro antiplasmodium assay (parasite lactate dehydrogenase), CQ-resistant strain. It counts as cell-based, Plasmodium falciparum. The note with it: for IC50: Plasmodium falciparum; for activity lowered by omitting the 7-chlorine atom: CQ-resistant strain, versus 7-chloro analogues.
The test system of test [3] is CQ-sensitive strain of P. falciparum (NF54). The experiment in a line: in vitro antiplasmodium assay (parasite lactate dehydrogenase), CQ-sensitive strain. The note with it: for IC50: Plasmodium falciparum. The format is cell-based, Plasmodium falciparum.
Where [4] appears, read: cytotoxicity, CHO cells, MTT, mean ± SD.
Setting [5] is: CQ-resistant P. falciparum K1, mean ± SD, read-out: K1 IC50.
[6] abbreviates: CQ-sensitive P. falciparum NF54, mean ± SD, read-out: NF54 IC50.

Each structure is given as a SMILES string. Read-outs that look alike come from different tables or passages of the source.

A word on the IC50: it is the concentration needed to halve the response being measured.

In the case of `CC[C@H]1CN2CCc3cc(OC)c(OC)cc3[C@@H]2C[C@@H]1C[C@H]1NCCc2cc(OC)c(OC)cc21` [Emetine, reference compound], the IC50 is 0.04 ± 0.01 µM in test [1] (reference value for compound subset c), 0.14 µM in test [1] (reference value for compound subset d) and 0.03 µM in test [1] (reference value for compound subset e).
Regarding `C=CCN1CCC(CNc2ccnc3cc(Cl)ccc23)C(C)(C)C1` (centres unmarked) [Compound 16b, N-[(1-Allyl-3,3-dimethylpiperidin-4-yl)methyl]-7-chloroquinolin-4-amine], the IC50 was 29.9 ± 1.2 µM in test [1] (setting [4]), 0.025 ± 0.0089 µM in test [2] (setting [5]) and 0.015 ± 0.0017 µM in test [3] (setting [6]). Also, the “SI (selectivity index)” value in test [1] turned out to be 1991.
In the case of `Clc1ccc2c(NCC3CC4(c5ccccc5)CCN3C4)ccnc2c1` (centres unmarked) [Compound 11a, 7-Chloro-N-[(4-phenyl-1-azabicyclo[2.2.1]heptan-2-yl)methyl]quinolin-4-amine], the half-maximal inhibitory concentration (IC50) in test [1] (setting [4]) amounted to 26 ± 2.9 µM; in test [2] (setting [5]), 0.033 ± 0.0062 µM; in test [3] (setting [6]) it was 0.021 ± 0.005 µM. Also, the “SI (selectivity index)” value in test [1] was 1266.
With `Oc1cccc2ccc(CNCC3CC4(c5ccccc5)CCN3C4)nc12` (centres unmarked) [Compound 12d, 2-{N-[(4-Phenyl-1-azabicyclo[2.2.1]heptan-2-yl)methyl]aminomethyl}quinolin-8-ol], the IC50 amounted to 103 ± 19.7 µM in test [1] (setting [4]), 4.64 ± 0.13 µM in test [2] (setting [5]) and 0.72 ± 0.03 µM in test [3] (setting [6]). Further, the “SI (selectivity index)” value in test [1] worked out at 142.
On to `c1ccc(C23CCN(C2)C(CNc2ccnc4ccccc24)C3)cc1` (centres unmarked) [Compound 11b, N-[(4-Phenyl-1-azabicyclo[2.2.1]heptan-2-yl)methyl]quinolin-4-amine], for which the IC50 in test [1] (setting [4]) was 11.2 ± 2.1 µM; in test [2] (setting [5]) it was 0.069 ± 0.0113 µM; in test [3] (setting [6]) it was 0.045 ± 0.007 µM. In addition, the “SI (selectivity index)” value in test [1] came to 250. Further, the “activity lowered by omitting the 7-chlorine atom” value in test [2] is 2 to 3 times.
Consider `C=CCN1CCC(CNc2ccnc3ccccc23)C(C)(C)C1` (centres unmarked) [Compound 16c, N-[(1-Allyl-3,3-dimethylpiperidin-4-yl)methyl]quinolin-4-amine], for which the values for the IC50 in test [1] (setting [4]), in test [2] (setting [5]) and in test [3] (setting [6]) were 27 ± 3.2 µM, 0.0685 ± 0.0078 µM and 0.236 ± 0.032 µM, respectively. Also, the “SI (selectivity index)” value in test [1] was 114. The “activity lowered by omitting the 7-chlorine atom” value in test [2] was in the range of 2 to 3 times.
On to `COc1ccc(CNCC2CC3(c4ccccc4)CCN2C3)cc1` (centres unmarked) [Compound 7, 2-[N-(4-methoxybenzyl)aminomethyl]-4-phenyl-1-azabicyclo[2.2.1]heptane], for which, in test [3] (setting [6]), the concentration for half-maximal inhibition (IC50) turned out to be 1.55 ± 0.13 µM. For the same molecule, the “antiplasmodium activity (in words)” value in test [3] (in vitro, strain not given) is “moderate antiplasmodium activity”.
In the case of `c1ccc(C23CCN(C2)C(CNCc2ccnc4ccccc24)C3)cc1` (centres unmarked) [Compound 12a, N-[(4-Phenyl-1-azabicyclo[2.2.1]heptan-2-yl)methyl]-1-(quinolin-4-yl)methanamine], the 50% inhibitory concentration (IC50) in test [3] (setting [6]) came to 6.77 ± 0.25 µM.
Consider `C=CCN1C[C@@H](OCc2ccccc2)[C@@H](CNc2ccnc3cc(Cl)ccc23)C(C)(C)C1` (relative stereo) [Compound 16a, N-[(cis-1-Allyl-5-benzyloxy-3,3-dimethylpiperidin-4-yl)methyl]-7-chloroquinolin-4-amine], for which the IC50 in test [1] (setting [4]) worked out at 122 ± 41.4 µM; in test [2] (setting [5]), 0.026 ± 0.0057 µM; in test [3] (setting [6]), 0.012 ± 0.001 µM. In addition, the “SI (selectivity index)” value in test [1] is recorded as 10,149.
Turning to `C=CCN1CCC(CNCc2ccc3ccccc3n2)C(C)(C)C1` (centres unmarked) [Compound 17d, N-[(1-Allyl-3,3-dimethylpiperidin-4-yl)methyl]-1-(quinolin-2-yl)methanamine], the IC50 in test [3] (setting [6]) was 3.66 ± 0.82 µM.
As to `CCN(CC)CCCC(C)Nc1ccnc2cc(Cl)ccc12` (centres unmarked) [Chloroquine, reference compound], the IC50 is 0.167 µM in test [2] (K1, read-out: IC50 (K1)); 0.0113 µM in test [3] (NF54, read-out: IC50 (NF54), footnote reference value, subset c); 0.0095 µM in test [3] (NF54, read-out: IC50 (NF54), footnote reference value, subset d); 0.02 µM in test [3] (NF54, read-out: IC50 (NF54), footnote reference value, subset e); 0.011 ± 0.001 µM in test [3] (NF54, read-out: NF54 IC50, reference value for compound subset c); 0.01 µM in test [3] (NF54, read-out: NF54 IC50, reference value for compound subset d). Besides, the IC50 in test [3] (NF54, read-out: NF54 IC50, reference value for compound subset e) was 0.02 µM.
In the case of `C=CCN1C[C@@H](OCc2ccccc2)[C@@H](CNCc2ccc3ccccc3n2)C(C)(C)C1` (relative stereo) [Compound 17c, N-[(cis-1-Allyl-5-benzyloxy-3,3-dimethylpiperidin-4-yl)methyl]-1-(quinolin-2-yl)methanamine], the IC50 in test [1] (setting [4]) was found to be 211 ± 31.4 µM; in test [2] (setting [5]) it was 2.82 ± 0.14 µM; in test [3] (setting [6]), 1.57 ± 0.17 µM. Further, in test [1], the “SI (selectivity index)” value turned out to be 134.
With `Clc1nc2ccccc2cc1CNCC1CC2(c3ccccc3)CCN1C2` (centres unmarked) [Compound 12e, N-[(4-Phenyl-1-azabicyclo[2.2.1]heptan-2-yl)methyl]-1-(2-chloroquinolin-3-yl)methanamine], the IC50 in test [3] (setting [6]) turned out to be 3.6 ± 0.31 µM.
Still for that read-out and setting: next, `c1ccc(C23CCN(C2)C(CNCc2cnc4ccccc4c2)C3)cc1` (centres unmarked) [Compound 12b, N-[(4-Phenyl-1-azabicyclo[2.2.1]heptan-2-yl)methyl]-1-(quinolin-3-yl)methanamine]: 4.07 ± 0.74 µM; `C=CCN1CCC(CNCc2ccc3cccc(O)c3n2)C(C)(C)C1` (centres unmarked) [Compound 17e, 2-{N-[(1-Allyl-3,3-dimethylpiperidin-4-yl)methyl]aminomethyl}quinolin-8-ol]: 2.89 ± 1.06 µM.
For the molecule `C=CCN1C[C@@H](OCc2ccccc2)[C@@H](CNCc2cc3ccccc3nc2Cl)C(C)(C)C1` (relative stereo) [Compound 17f, N-[(cis-1-Allyl-5-benzyloxy-3,3-dimethylpiperidin-4-yl)methyl]-1-(2-chloroquinolin-3-yl)methanamine], the IC50 in test [1] (setting [4]) came to 199 ± 23.3 µM; in test [2] (setting [5]), 1.95 ± 0.078 µM; in test [3] (setting [6]), 1.28 ± 0.33 µM. Also, the “SI (selectivity index)” value in test [1] turned out to be 156.
`c1ccc(C23CCN(C2)C(CNCc2ccc4ccccc4n2)C3)cc1` (centres unmarked) [Compound 12c, N-[(4-Phenyl-1-azabicyclo[2.2.1]heptan-2-yl)methyl]-1-(quinolin-2-yl)methanamine]: the IC50 in test [3] (setting [6]) turned out to be 1.27 ± 0.04 µM.
For `C=CCN1C[C@@H](OCc2ccccc2)[C@@H](CNCc2ccnc3ccccc23)C(C)(C)C1` (relative stereo) [Compound 17a, N-[(cis-1-Allyl-5-benzyloxy-3,3-dimethylpiperidin-4-yl)methyl]-1-(quinolin-4-yl)methanamine], the values for the IC50 in test [1] (setting [4]), in test [2] (setting [5]) and in test [3] (setting [6]) were 139 ± 14.1 µM, 3.66 ± 0.43 µM and 2.37 ± 1.05 µM, respectively. The “SI (selectivity index)” value in test [1] was 59.
Regarding `C=CCN1CCC(CNCc2ccnc3ccccc23)C(C)(C)C1` (centres unmarked) [Compound 17b, N-[(1-Allyl-3,3-dimethylpiperidin-4-yl)methyl]-1-(quinolin-4-yl)methanamine], the IC50 in test [3] (setting [6]) worked out at 4.94 ± 1.18 µM.
As for `C=CCN1CCC(CNCc2cc3ccccc3nc2Cl)C(C)(C)C1` (centres unmarked) [Compound 17g, N-[(1-Allyl-3,3-dimethylpiperidin-4-yl)methyl]-1-(2-chloroquinolin-3-yl)methanamine], in test [3] (setting [6]), the IC50 is 7.75 ± 1.44 µM.
In the case of `C=CCN1C[C@@H](OC)[C@@H](CNCc2ccnc3ccccc23)C(C)(C)C1` (relative stereo) [Compound 17h, N-[(cis-1-Allyl-5-methoxy-3,3-dimethylpiperidin-4-yl)methyl]-1-(quinolin-4-yl)methanamine], the IC50 in test [3] (setting [6]) amounted to 18 ± 2.44 µM.
